Assay results from patent US10584115B2, “Substituted pyridine and pyrazine BMI-1 inhibitors” (PTC Therapeutics, Inc., priority 2013, dated 2020).

Test system: Bmi-1 protein
Test: Sandwich ELISA Assay (Bmi-1 protein level in HT-1080 cells after compound treatment)
Assay type: cell-based
Conditions: Table 1, Bmi-1 sandwich ELISA, read-out: ELISA EC50 value for Bmi-1 protein
Outline: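 HT-1080 cells exposed to compounds for 40–48 h at 37 °C (0.5% DMSO final), then lysed. Bmi-1 in lysates measured by sandwich ELISA (mouse monoclonal capture, rabbit anti-Bmi-1 detection, HRP anti-rabbit, TMB), read at OD450 with OD570 reference against a recombinant Bmi-1 standard curve (0–8000 pg/mL).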

Row | Structure (SMILES) | EC50 [µM]
1 | Cc1nc(C(F)(F)F)cn1-c1cncc(Nc2ccc(C(F)(F)F)cc2)n1 [compound 303, 6-[2-methyl-4-(trifluoromethyl)-1H-imidazol-1-yl]-N-[4-(trifluoromethyl)phenyl]pyrazin-2-amine] | 0.1 to 3
2 | Cc1nc2cc(F)c(F)cc2n1-c1cncc(Nc2ccc(C(F)(F)F)nc2)n1 [compound 304, 6-(5,6-difluoro-2-methyl-1H-benzimidazol-1-yl)-N-[6-(trifluoromethyl)pyridin-3-yl]pyrazin-2-amine] | 0.01 to 0.1
3 | Cc1nc(C)n(-c2cncc(Nc3ccc(OC(F)F)cc3)n2)c1Cl [compound 305, 6-(5-chloro-2,4-dimethyl-1H-imidazol-1-yl)-N-[4-(difluoromethoxy)phenyl]pyrazin-2-amine] | 0.1 to 3
4 | Cc1nc2ccccc2n1-c1cncc(Nc2ccc(OC(F)(F)C(F)F)cc2)n1 [compound 307, 6-(2-methyl-1H-benzimidazol-1-yl)-N-[4-(1,1,2,2-tetrafluoroethoxy)phenyl]pyrazin-2-amine] | 0.1 to 3
5 | Fc1ccc2ncc(-c3cncc(Nc4ccc(C(F)(F)F)cc4)n3)n2c1 [compound 308, 6-(6-fluoroimidazo[1,2-a]pyridin-3-yl)-N-[4-(trifluoromethyl)phenyl]pyrazin-2-amine] | 0.1 to 3
6 | Cc1nc2ccc(F)cn2c1-c1cncc(Nc2ccc(OC(F)F)c(F)c2)n1 [compound 309, N-[4-(difluoromethoxy)-3-fluorophenyl]-6-(6-fluoro-2-methylimidazo[1,2-a]pyridin-3-yl)pyrazin-2-amine] | 0.001 to 0.01
7 | COc1c(F)cc(Nc2cc(C#N)cc(-c3c(C)nc4ccc(F)cn34)n2)cc1F [compound 313, 2-[(3,5-difluoro-4-methoxyphenyl)amino]-6-(6-fluoro-2-methylimidazo[1,2-a]pyridin-3-yl)pyridine-4-carbonitrile] | 0.001 to 0.01
8 | COc1cc(Nc2cc(C#N)cc(-c3c(C)nc4ccc(F)cn34)n2)ccc1F [compound 314, 2-[(4-fluoro-3-methoxyphenyl)amino]-6-(6-fluoro-2-methylimidazo[1,2-a]pyridin-3-yl)pyridine-4-carbonitrile] | 0.1 to 3
9 | COc1ccc2nc(C)n(-c3cncc(Nc4ccc(C(F)(F)F)cc4)n3)c2c1 [compound 317, 6-(6-methoxy-2-methyl-1H-benzimidazol-1-yl)-N-[4-(trifluoromethyl)phenyl]pyrazin-2-amine] | 0.01 to 0.1
10 | Cc1nc2cc(F)c(F)cc2n1-c1cncc(Nc2ccc(OC(F)F)c(F)c2)n1 [compound 319, N-[4-(difluoromethoxy)-3-fluorophenyl]-6-(5,6-difluoro-2-methyl-1H-benzimidazol-1-yl)pyrazin-2-amine] | 0.01 to 0.1

Results, then the compound that gave them:

Row | EC50 [µM] | Structure (SMILES)
11 | 0.1 to 3 | CNCc1nc2ccccn2c1-c1cncc(Nc2ccc(C(F)(F)F)cc2)n1 [compound 302, 6-{2-[(methylamino)methyl]imidazo[1,2-a]pyridin-3-yl}-N-[4-(trifluoromethyl)phenyl]pyrazin-2-amine]
12 | 0.1 to 3 | Cc1nc2ccccc2n1-c1cncc(Nc2ccc(OCC(F)(F)F)cc2)n1 [compound 306, 6-(2-methyl-1H-benzimidazol-1-yl)-N-[4-(2,2,2-trifluoroethoxy)phenyl]pyrazin-2-amine]
13 | 0.1 to 3 | Cc1nc(C(F)(F)F)c(C)n1-c1cncc(Nc2ccc(C(F)(F)F)cc2)n1 [compound 318, 6-[2,5-dimethyl-4-(trifluoromethyl)-1H-imidazol-1-yl]-N-[4-(trifluoromethyl)phenyl]pyrazin-2-amine]
14 | 0.01 to 0.1 | FC(F)(F)COc1ccc(Nc2cncc(-c3c(C(F)(F)F)nc4ccccn34)n2)cc1 [compound 321, N-[4-(2,2,2-trifluoroethoxy)phenyl]-6-[2-(trifluoromethyl)imidazo[1,2-a]pyridin-3-yl]pyrazin-2-amine]
15 | 0.1 to 3 | FC(F)C(F)(F)Oc1ccc(Nc2cncc(-c3c(C(F)(F)F)nc4ccccn34)n2)cc1 [compound 322, N-[4-(1,1,2,2-tetrafluoroethoxy)phenyl]-6-[2-(trifluoromethyl)imidazo[1,2-a]pyridin-3-yl]pyrazin-2-amine]
